Test [1] is described as follows: DPPH radical scavenging activity at 3000 uM. It is filed as functional. Background: Loss of DPPH colour is used to gauge radical scavenging.
A short description of test [2]: Superoxide radical scavenging activity. It is filed as functional.

For the compound `COc1cc(C)c2c(c1C=O)Oc1c(C=O)c(C(=O)O)c(O)c(C)c1OC2=O`, the Activity in test [1] was 30%. On the same count and under the same terms, the same measure for `COc1cc(C)c2c(c1CO)Oc1c3c(c(O)c(C)c1OC2=O)C(=O)OC3`: 18%. The compound `Cc1cc(O)c(C=O)c2c1C(=O)Oc1c(COC(=O)/C=C/C(=O)O)c(O)c(C(=O)O)c(C)c1O2` [FUMARPROTOCETRARIC ACID] had an Activity in test [1] of 20%. The compound further displayed an IC50 in test [2] of 580 µM.

With `Cc1cc(O)c(C=O)c2c1C(=O)Oc1c(C)c(O)c3c(c1O2)C(O)OC3=O` (stereo not given) [NORSTICTIC ACID], 566 µM corresponded to half-maximal inhibition in test [2] (IC50).

One may read the IC50 as the concentration that inhibits the measured activity by half.
